Source: patent publication US8318947B2, “Comestible compositions comprising high potency savory flavorants, and processes for producing them” (Senomyx, Inc., priority 2006, dated 2012)

Biological target: T1, hT1R1/hT1R3 umami receptor expressed in an HEK293 cell line (Homo sapiens, UniProt Q7RTX0+Q7RTX1)
T1 construct: expressed in transfected cells; host or cells: HEK293 cell line derivative, clone 1-17, expression induced with mifepristone
T1 sequence (Q7RTX1 21-841): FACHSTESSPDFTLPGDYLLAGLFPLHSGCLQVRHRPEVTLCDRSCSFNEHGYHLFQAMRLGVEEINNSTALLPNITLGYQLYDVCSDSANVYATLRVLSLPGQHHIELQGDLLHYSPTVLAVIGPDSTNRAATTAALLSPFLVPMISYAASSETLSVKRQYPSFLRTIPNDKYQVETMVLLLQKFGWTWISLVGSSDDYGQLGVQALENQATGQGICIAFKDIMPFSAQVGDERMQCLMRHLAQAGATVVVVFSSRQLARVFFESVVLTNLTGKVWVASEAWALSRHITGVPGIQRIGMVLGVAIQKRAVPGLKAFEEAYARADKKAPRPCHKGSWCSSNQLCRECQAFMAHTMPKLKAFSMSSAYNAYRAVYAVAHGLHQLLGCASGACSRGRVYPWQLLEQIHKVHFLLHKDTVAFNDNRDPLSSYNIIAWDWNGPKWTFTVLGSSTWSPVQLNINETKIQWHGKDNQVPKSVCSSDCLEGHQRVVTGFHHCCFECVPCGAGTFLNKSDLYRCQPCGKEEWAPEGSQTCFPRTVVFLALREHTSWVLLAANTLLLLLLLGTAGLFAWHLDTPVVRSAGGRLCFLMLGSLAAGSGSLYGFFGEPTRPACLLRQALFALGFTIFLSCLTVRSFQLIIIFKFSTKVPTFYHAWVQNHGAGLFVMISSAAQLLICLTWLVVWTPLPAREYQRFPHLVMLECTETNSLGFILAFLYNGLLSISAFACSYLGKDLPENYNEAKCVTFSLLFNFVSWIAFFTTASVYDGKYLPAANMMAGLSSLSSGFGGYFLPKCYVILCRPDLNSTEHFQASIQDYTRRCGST
T1 sequence (Q7RTX0 21-852): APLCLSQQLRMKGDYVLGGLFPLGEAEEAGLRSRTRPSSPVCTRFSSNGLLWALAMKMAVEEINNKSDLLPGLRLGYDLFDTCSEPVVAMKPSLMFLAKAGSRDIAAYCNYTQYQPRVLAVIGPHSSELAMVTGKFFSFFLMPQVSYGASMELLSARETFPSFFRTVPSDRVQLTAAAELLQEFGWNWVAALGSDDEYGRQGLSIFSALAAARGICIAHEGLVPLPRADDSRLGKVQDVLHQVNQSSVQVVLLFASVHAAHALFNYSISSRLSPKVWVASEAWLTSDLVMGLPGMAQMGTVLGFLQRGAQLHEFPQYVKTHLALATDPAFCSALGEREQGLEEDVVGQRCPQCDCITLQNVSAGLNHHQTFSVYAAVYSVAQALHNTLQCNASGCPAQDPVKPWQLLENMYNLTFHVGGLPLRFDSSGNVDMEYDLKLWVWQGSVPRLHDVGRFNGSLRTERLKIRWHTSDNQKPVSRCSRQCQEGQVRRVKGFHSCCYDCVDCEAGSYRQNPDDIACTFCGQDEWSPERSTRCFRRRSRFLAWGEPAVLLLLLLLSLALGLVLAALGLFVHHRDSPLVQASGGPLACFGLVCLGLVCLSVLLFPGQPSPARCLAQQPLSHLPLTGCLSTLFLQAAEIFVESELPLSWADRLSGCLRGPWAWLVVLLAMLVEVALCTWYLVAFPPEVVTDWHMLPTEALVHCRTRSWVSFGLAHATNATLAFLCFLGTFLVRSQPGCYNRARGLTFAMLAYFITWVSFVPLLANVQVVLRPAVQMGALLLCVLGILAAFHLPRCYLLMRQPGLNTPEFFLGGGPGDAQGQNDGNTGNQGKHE
Assay: Umami taste enhancement assay (EC50 ratio vs. MSG)
Format: cell-based
Text: In umami taste enhancement activity assay experiments, which produce an “EC50 ratio” measurement of how effectively the amide compounds of the invention enhance the savory flavorant (typically MSG) already in a test solution. A series of measurements of the dose response is run in solutions comprising MSG alone, then a second dose response is run with MSG in combination with predetermined amounts of a candidate compound of Formula (I) at the same time.
In this assay, increasing concentrations of monosodium glutamate (ranging from 12 μM to 81 mM) were presented, in duplicates, in the presence or absence of a fixed concentration of the test compound. Typical compound concentrations tested were 30 μM, 10 μM, 3 μM, 1 μM, 0.3 μM, 0.1 μM and 0.03 μM. The relative efficacy of compounds of […] at enhancing the receptor was determined by calculating the magnitude of a shift in the EC50 for monosodium glutamate. Enhancement was defined as a ratio (EC50R) corresponding to the EC50 of monosodium glutamate, determined in the absence of the test compound, divided by the EC50 of monosodium glutamate, determined in the presence of the test compound.
Stated alternatively, “EC50 ratio” as compared to MSG is calculated based on the following definitions:
EC50 Ratio vs. MSG=EC50 (MSG)/EC50 (MSG+[Compound]) wherein “[compound]” refers to the concentration of the compound of Formula (I) used to elicit (or enhance or potentiate) the MSG dose response.
It should be noted that the EC50 ratio measured can depend somewhat on the concentration of the compound itself. Preferred savory enhancers would have a high EC50 Ratio vs. MSG at a low concentration of the compound used.

Row | Compound | EC50 ratio (enhancement of the effectiveness of monosodium glutamate) (compound present at 0.03 μM) | EC50 ratio (enhancement of the effectiveness of monosodium glutamate) (compound present at 0.3 μM)
1 | CCCC(CCC)NC(=O)c1ccc2c(c1)OCO2 [Example 1, N-(heptan-4-yl)benzo[d][1,3]dioxole-5-carboxamide] | 6.92 | 
2 | COc1ccc(CNC(=O)C(=O)NCCc2ccccn2)c(OC)c1 [Example 24, N-(2,4-Dimethoxy-benzyl)-N′-(2-pyridin-2-yl-ethyl)-oxalamide] |  | 6.51
